Test results as given in patent publication US20240369551A1 (priority 2021, published 2024).
Ends that are not written are not given here.

Tested on: COVID19 anti-S1 IgG
Assay: UV-vis aggregation test of peptide-coated nanoparticles (Examples 1, 6, 7, 8)
Format: binding
Conditions: silver nanoparticles (AgNP, 10 nm), streptavidin-biotin

S14P5-Ag: S14P5 epitope conjugated onto silver nanoparticles (AgNP, 10 nm) through the streptavidin-biotin approach (TESNKKFLPFQQFGRDIA; also: conjugated to silver nanoparticles via streptavidin-biotin)
response upon introduction of COV19 anti-S1 IgGs: visible nanoparticle precipitation
